In PMC10759609, “A novel PDPN antagonist peptide CY12-RP2 inhibits melanoma growth via Wnt/β-catenin and modulates the immune cells” (Journal of Experimental & Clinical Cancer Research : CR, 2024):
Peptide text beside a SMILES is read from it.

Legend:
PDPN in A375 cells = test: Immunofluorescence binding/co-localization with PDPN, A375; format: cell-based; details: 5 μM, 10 h, 37 ℃
Method: Immunofluorescence analysis was used for antigen localization and quantification. For PDPN immunofluorescence staining, melanoma cells (A375, A875) were seeded in coverslips, cultured for 24 h, and fixed using 4% paraformaldehyde for 15 min at room temperature (RT). The cells were then permeabilized with 0.2% Triton X-100 in PBS for 10 min. Cells were blocked using 1% bovine serum albumin (BSA) in PBS for 30 min at RT, and incubated with the primary antibody overnight at 4 ℃. Afterwards, cells were washed three times with PBS containing 0.01% Triton X-100 for 5 min, and incubated with Alexa Fluor 568–conjugated secondary antibodies at RT for 1 h. Lastly, the nuclei were dyed with 4’,6-diamidino-2-phenylindole (DAPI) for 5 min at RT, and the slides were imaged using a NIKON laser scanning confocal microscope. To further verify the specificity binding ability of CY12-RP2 with PDPN, immunofluorescence was detected for analysis in melanoma cells. Briefly, A375 or A875 cells were incubated with CY12-RP2 at a concentration of 5 μM for 10 h at 37 ℃, and then washed with DMEM to remove the unbound peptide. The anti-PDPN primary antibody was then incubated for 4 h at RT. Further experimental procedures were performed as described above. […]

[1] = system: A375 cell spheroids (caspase3); test: Caspase3 immunofluorescence in 3D spheroids; format: cell-based; details: 3D melanoma cell spheroids (A375 in Fig. S3G legend), 72 h
Method: Prepared melanoma cells spheroids were plated in 48-well plates. Following incubation for 3 days, the spheroids were exposed to different concentrations (0, 50, 100 and 200 μM) of CY12-RP2, and changes in spheroid diameter were detected after 5 days of treatment. Additionally, melanoma cell spheroids were treated with various concentrations of CY12-RP2 as described previously, and after 72 h, the spheroids were stained for immunofluorescence with caspase 3 primary antibody. The specific experimental procedures refer to the following immunofluorescence analysis. Additionally, we co-cultured peptide-stimulated PBMC with spheroids to determine the tumor-killing ability of activated PBMC.
Transwell assays were performed to quantify the modulatory effects of SKL2001 and IWR1 (C). Statistical analysis was performed to evaluate the invasion of cells (D). The power field scale bar, 100 μm. (E) Western blot assays were also performed on EMT-related proteins to identify the effects of SKL2001 and IWR1. […]
(A) Cell viability of melanoma cell lines (A375, A875) treated with 6 peptides except CY12-RP2 at various concentrations for 48 h. […] (C) SPR assay was performed to quantify […]
melanoma cell lines (A375, A875). […] (G) Immunofluorescence staining was performed to measure the caspase3 fluorescence intensity of A375 cell spheroids after treating with CY12-RP2. […]

A375 melanoma xenograft = test: A375 subcutaneous xenograft, BALB/c nude mice; format: in vivo; details: tail vein, every two days for 15 days
Method: Tumorigenesis assays were conducted in vivo using BALB/c nude mice and BALB/c mice from Guangdong Medical Laboratory Animal Center. The animal study was reviewed and approved by the Administrative Committee on Animal Research of Shenzhen International Graduate School, Tsinghua University (Ethical Development No. 16, 10 November 2021). Samples with 5 × 10^5 A375 or B16F10-Luc melanoma cells were diluted in 100 μL PBS and injected subcutaneously into 6- to 8-week-old female BALB/c nude mice or BALB/c mice. 5 days later, the mice were treated with CY12-RP2 by tail vein administration at various doses (25 mg/kg and 100 mg/kg) every two days. The tumor volume and body weight were measured every 2 days, with the calculation of the tumor volume under the assumption of an ellipsoidal tumor as: tumor volume = length × width^2/2. Tumors from BALB/c nude mice were collected and photographed on day 21, while tumors from the allograft mouse model were measured using bioluminescence imaging. The blood collected from the eyes of BALB/c nude mice were stored at 4 °C for 24 h and then centrifuged for 15 min under the indicated conditions (4 °C, 3000 rpm). The supernatant was collected and assayed for drug toxicity using kits, including AST, ALT, TG, and γ-GT. […]

[2] = system: liver, heart, spleen, lung and kidney; details: mouse, in vivo
Method: For histopathological analysis, after BALB/c nude mice were sacrificed, organs (heart, liver, spleen, lung, and kidney) were collected and fixed in 4% paraformaldehyde for 24 h at RT. The fixed organs were then dehydrated and inserted in paraffin, and prepared in 2 µm sections. The prepared sections and experimental procedures were routinely carried out by Servicebio company.

[3] = system: immune cells in lungs and spleens; test: Immunofluorescence of immune cell infiltration, spleen and lung, lung metastasis model; format: in vivo, BALB/c mice
Method: Immunofluorescence analysis was used for antigen localization and quantification. For PDPN immunofluorescence staining, melanoma cells (A375, A875) were seeded in coverslips, cultured for 24 h, and fixed using 4% paraformaldehyde for 15 min at room temperature (RT). The cells were then permeabilized with 0.2% Triton X-100 in PBS for 10 min. Cells were blocked using 1% bovine serum albumin (BSA) in PBS for 30 min at RT, and incubated with the primary antibody overnight at 4 ℃. Afterwards, cells were washed three times with PBS containing 0.01% Triton X-100 for 5 min, and incubated with Alexa Fluor 568–conjugated secondary antibodies at RT for 1 h. Lastly, the nuclei were dyed with 4’,6-diamidino-2-phenylindole (DAPI) for 5 min at RT, and the slides were imaged using a NIKON laser scanning confocal microscope. To further verify the specificity binding ability of CY12-RP2 with PDPN, immunofluorescence was detected for analysis in melanoma cells. Briefly, A375 or A875 cells were incubated with CY12-RP2 at a concentration of 5 μM for 10 h at 37 ℃, and then washed with DMEM to remove the unbound peptide. The anti-PDPN primary antibody was then incubated for 4 h at RT. Further experimental procedures were performed as described above. To determine the immune cell infiltration and proportion changes in the lungs and spleens in the pulmonary metastasis mouse model, sequential frozen slices (12 μm) were prepared and incubated with CD3, CD4, CD8, Foxp3, CD56, F4/80, and CD11c primary antibodies for 1 h, and then incubated with Alexa Fluor 488-conjugated goat anti-mouse F(ab’)2 and Alexa Fluor 647-conjugated goat anti-mouse F(ab’)2 in PBS containing 1% BSA and 1% goat serum for 30 min. All incubations were conducted under coverslips at RT, and then repeatedly washed 3 times with PBS. Coverslips were mounted after staining cell nuclei with DAPI, and imaged using a NIKON laser scanning confocal microscope.

SMILES: CC(C)C[C@H](NC(=O)[C@H](Cc1ccc(O)cc1)NC(=O)[C@@H](N)[C@@H](C)O)C(=O)N[C@@H](CS)C(=O)N[C@H](C(=O)N[C@@H](C)C(=O)N[C@@H](CS)C(=O)N[C@@H](CC(=O)O)C(=O)N[C@@H](Cc1ccc(O)cc1)C(=O)N[C@H](C(=O)N[C@@H](Cc1c[nH]cn1)C(=O)N[C@@H](Cc1c[nH]cn1)C(=O)O)[C@@H](C)O)[C@@H](C)O [CY12-RP2] (H-TYLCTACDYTHH-OH; N-terminus and C-terminus assumed)
- fluorescence and co-localization with PDPN (PDPN in A375 cells): strong fluorescence and co-localization
- level of Caspase3 [1]: significantly increased
- tumor growth (A375 melanoma xenograft; 25 mg/kg and 100 mg/kg, especially 100 mg/kg): significantly inhibited the tumor growth
- mean body weight (A375 melanoma xenograft; nude mice, 25 and 100 mg/kg): no significant change
- toxic effect on organs (overall) [2]: slightly toxic effect
- M2-type macrophages ([3]; immunofluorescence): decreased proportion
- NK cells and M1-type macrophages ([3]; immunofluorescence): increased proportions
- infiltration of CD3 + CD4 + T cells and CD3 + CD8 + T cells ([3]; multiplex immunofluorescence): remarkable increase
- infiltration of Treg cells ([3]; multiplex immunofluorescence): reduction
